In brackets after ≈: the same amount, converted by molar mass.
How the values were obtained:
[1] = system: mouse leukemia L-1210; assay: therapeutic effect on implanted cancer in mice (L-1210, survival over 30 days); type: in vivo, mouse (BDF1); conditions: L1210, ip, 720 h, 6 days; for responders at 0.2 mg/kg / response vs control in vivo at 0.2 mg/kg: 0.20 mg/kg/day i.p.; for responders at 0.2 mg/kg / responders at 0.39 mg/kg / responders at 0.78 mg/kg / responders at 1.56 mg/kg / responders at 3.13 mg/kg / responders at 6.25 mg/kg / responders at 12.5 mg/kg / responders at 25 mg/kg / responders at 50 mg/kg: read-out: Number of mice survived for 30 days (converted); for responders at 0.39 mg/kg / response vs control in vivo at 0.39 mg/kg: 0.39 mg/kg/day i.p.; for responders at 0.78 mg/kg / response vs control in vivo at 0.78 mg/kg: 0.78 mg/kg/day i.p.; for responders at 1.56 mg/kg / response vs control in vivo at 1.56 mg/kg: 1.56 mg/kg/day i.p.; for responders at 3.13 mg/kg / response vs control in vivo at 3.13 mg/kg: 3.13 mg/kg/day i.p.; for responders at 6.25 mg/kg / response vs control in vivo at 6.25 mg/kg: 6.25 mg/kg/day i.p.; for responders at 12.5 mg/kg / response vs control in vivo at 12.5 mg/kg: 12.5 mg/kg/day i.p.; for responders at 25 mg/kg / response vs control in vivo at 25 mg/kg: 25 mg/kg/day i.p.; for responders at 50 mg/kg / response vs control in vivo at 50 mg/kg: 50 mg/kg/day i.p.
From the text: BDF1 strain male mice (5 weeks old) were each inoculated intraperitoneally with 10^5 mouse leukemia L-1210 cells and treated once a day by intraperitoneal injection with a test compound dissolved in physiological saline for 6 consecutive days beginning from the day of inoculation. The mice were then observed for 30 days to determine the rate of prolongation of survival period=100×T/C=100×(average survival days of treated group)/(average survival days of control group).

[2] = system: mouse leukemia L-1210 cells; assay: growth inhibitory activity to cancer cells in vitro (L-1210, 48 hours); type: cell-based; conditions: for inhibition at 5 µg/mL: L1210, 5 mcg/ml; for inhibition at 10 µg/mL: L1210, 10 mcg/ml; for inhibition at 20 µg/mL: L1210, 20 mcg/ml; for inhibition at 40 µg/mL: L1210, 40 mcg/ml; for inhibition at 80 µg/mL: L1210, 80 mcg/ml; for IC50: L1210, L-1210 cells, read-out: 50% inhibitory concentration
Protocol: DBA/2 mice were implanted with 10^5 mouse leukemia L-1210 cells. The ascites collected asceptically from the mice after 4 days of feeding was washed three times with physiological saline to obtain L-1210 cells, which was then suspended in RPMI 1640 culture medium [G. E. Moore, Journal of the American Medical Association, Vol. 199, 519 (1967); H. J. Morton, In Vitro, Vol. 6, 89 (1970)] to which 10% fetal calf serum and 5 μM 2-mercaptoethanol had been added, and the resulting suspension was diluted to 5×10^4 L-1210 cells per 0.9 ml. A microplate carrying 0.9 ml of the cell suspension and 0.1 ml of the culture medium containing the sample being tested was kept in a carbon dioxide incubator at 37° C. After 48 hours of cultivation, the number of cells was measured by means of a Coulter Counter (Coulter Electronics, Inc., U.S.A.) to obtain the growth inhibition (%)=(1--T/C )×100=[1-(number of grown cells in medium containing sample/(number of grown cells in control medium)]×100. The 50% growth inhibitory concentration was calculated from the values of growth inhibition at varied sample concentrations. The results of tests on typical compounds of this invention for the growth inhibition of L-1210 cells were as shown in Table 6.

[3] = cumulative toxicity in mice (maximum tolerated dose, once a day for 6 consecutive days); conditions: mouse, in vivo, ip, i.p. once a day for 6 consecutive days, total dose, read-out: Maximum Tolerated Dose (total dose not causing death)
Protocol: (§1) In Table 8 median lethal doses (LD50) of typical compounds of this invention are shown, measured in mice upon single intraperitoneal administration, as well as maximum tolerated doses in terms of total dose when a fixed amount per unit body weight was administered intraperitoneally to mice once a day for 6 consecutive days.
**Maximum value of the total dose not causing death when a fixed amount
per unit body weight is administered to mice once a day for 6 consecutive

[4] = acute toxicity in mice (single intraperitoneal administration); conditions: mouse, in vivo, ip; mice, single i.p.; read-out: LD50 (median lethal dose on single administration)
Protocol: as §1
*Median lethal dose on single administration.

[5] = read-out: Prolongation of survival period (%), T/C × 100
[6] = read-out: Growth inhibition (%), (1-T/C) × 100

Row | SMILES | responders at 0.2 mg/kg [1] | response vs control in vivo at 0.2 mg/kg [1, 5] | responders at 0.39 mg/kg [1] | response vs control in vivo at 0.39 mg/kg [1, 5] | responders at 0.78 mg/kg [1] | response vs control in vivo at 0.78 mg/kg [1, 5] | responders at 1.56 mg/kg [1] | response vs control in vivo at 1.56 mg/kg [1, 5] | responders at 3.13 mg/kg [1] | response vs control in vivo at 3.13 mg/kg [1, 5] | responders at 6.25 mg/kg [1] | response vs control in vivo at 6.25 mg/kg [1, 5] | responders at 12.5 mg/kg [1] | response vs control in vivo at 12.5 mg/kg [1, 5] | inhibition at 5 µg/mL [2, 6] | inhibition at 10 µg/mL [2, 6] | inhibition at 20 µg/mL [2, 6] | IC50 [2] | MTD [3] | LD50 [4] | other results
1 | COC(NC(=O)CCCCCCCCNC(=N)N)C(=O)NCCCCNCCCN (centres unmarked) [Compound 11, N-[4-(3-aminopropyl)aminobutyl]-2-(9-guanidinononanamido)-2-methoxyethanamide] | 0% | 107% | 0% | 143% | 0% | 200% | 0% | 200% | 50% | > 357% | 75% | > 393% | 50% | > 357% | 35% | 52.2% | 59.4% | 10 µg/mL (≈ 23.3 µM) | > 75 mg/kg | 12.5 to 25 mg/kg | responders at 25 mg/kg [1]: 0%; response vs control in vivo at 25 mg/kg [1, 5]: 0%; responders at 50 mg/kg [1]: 0%; response vs control in vivo at 50 mg/kg [1, 5]: 0%; inhibition at 40 µg/mL [2, 6]: 71.8%; inhibition at 80 µg/mL [2, 6]: 77.9%
2 | N=C(N)NCCCCC=CC(=O)NC(O)C(=O)NCCCCNCCCN (centres unmarked) [Compound 16, N-[4-(3-aminopropyl)aminobutyl]-2-(7-guanidino-2-heptenamido)-2-hydroxyethanamide] |  |  |  |  | 0% | 129% | 0% | 233% | 50% | > 343% | 50% | > 350% | 50% | > 354% | 31.1% | 32.5% | 56.3% | 17 µg/mL (≈ 44.1 µM) | > 150 mg/kg | 25 to 50 mg/kg | responders at 25 mg/kg [1]: 0%; response vs control in vivo at 25 mg/kg [1, 5]: 236%; responders at 50 mg/kg [1]: 0%; response vs control in vivo at 50 mg/kg [1, 5]: 0%; inhibition at 2.5 µg/mL ([2]; L1210, 2.5 mcg/ml, read-out: Growth inhibition (%), (1-T/C) × 100): 22.6%
3 | N=C(N)NCCCCCCC=CC(=O)NC(O)C(=O)NCCCCNCCCN (centres unmarked) [Compound 18, N-[4-(3-aminopropyl)aminobutyl]-2-(9-guanidino-2-nonenamido)-2-hydroxyethanamide] | 0% | 136% | 0% | 157% | 0% | 200% | 75% | > 429% | 100% | > 429% | 50% | > 350% | 0% | 0% | 15.7% | 20.9% | 29.5% | 90 µg/mL (≈ 218 µM) | > 37.5 mg/kg | 6.25 to 12.5 mg/kg | responders at 0.1 mg/kg ([1]; 0.10 mg/kg/day i.p., read-out: Number of mice survived for 30 days): 0%; response vs control in vivo at 0.1 mg/kg ([1]; 0.10 mg/kg/day i.p., read-out: Prolongation of survival period (%), T/C × 100): 129%; inhibition at 40 µg/mL [2, 6]: 32.3%; inhibition at 80 µg/mL [2, 6]: 47.8%

From patent US4983328A, “N-(4-(3-aminopropyl)aminobutyl)-2-(ω-gua nidino-fatty-acid-amido(-2-substituted-ethanamide, salt thereof, and process for preparation thereof” (Bristol-Myers Company, priority 1981, dated 1991)
